ChEMBL document CHEMBL1158907, “2,3,4-Tribromopyrrole from the Marine Polychaete Polyphysia crassa” (J Nat Prod, 1990)

Columns and labels:
[1] = system: Bacillus; experiment: Antimicrobial activity against Bacillus at 10 ug/disk after 48 hrs; type: functional; details: read-out: IZ
[2] = system: Vibrio; experiment: Antimicrobial activity against Vibrio at 50 ug/disk after 48 hrs; type: functional; details: read-out: IZ
[3] = system: Corynebacterium; experiment: Antimicrobial activity against Corynebacterium at 10 ug/disk after 48 hrs; type: functional; details: read-out: IZ
[4] = system: Carassius auratus; experiment: Toxicity against goldfish at 500 ug; type: organism-based; details: in vivo
[5] = system: Flavobacterium; experiment: Antimicrobial activity against Flavobacterium at 10 ug/disk after 48 hrs; type: functional; details: read-out: IZ
[6] = system: Corynebacterium; experiment: Antimicrobial activity against Corynebacterium at 50 ug/disk after 48 hrs; type: functional; details: read-out: IZ
[7] = system: Bacillus; experiment: Antimicrobial activity against Bacillus at 50 ug/disk after 48 hrs; type: functional; details: read-out: IZ
[8] = system: Flavobacterium; experiment: Antimicrobial activity against Flavobacterium at 50 ug/disk after 48 hrs; type: functional; details: read-out: IZ
[9] = system: Alteromonas; experiment: Antimicrobial activity against Alteromonas at 50 ug/disk after 48 hrs; type: functional; details: read-out: IZ

Compound: Brc1c[nH]c(Br)c1Br
- zone of inhibition at 10 µg/disc [1]: 2 mm
- zone of inhibition at 50 µg/disc [2]: > 5 mm
- zone of inhibition at 10 µg/disc [3]: 2 mm
- Activity [4]: Non-toxic
- zone of inhibition at 10 µg/disc [5]: 2 mm
- zone of inhibition at 50 µg/disc [6]: > 5 mm
- zone of inhibition at 50 µg/disc [7]: > 5 mm
- zone of inhibition at 50 µg/disc [8]: > 5 mm
- zone of inhibition at 50 µg/disc [9]: > 5 mm
